We go through five molecules from patent publication US11873287B2, “Piperidine-2,6-dione derivatives and ulcerative colitis treating” (TIANJIN HEMAY PHARMACEUTICAL SCI-TECH CO., LTD, priority 2016, dated 2024).

Entries after “also recorded” stand apart in the source; their conditions may differ.

Series [1] concerns DSS-Induced inflammatory Bowel Disease Models in Mice. The series can be described thus: DSS-induced inflammatory bowel disease model in mice (Biological Example 2, 0.9% DSS). The series is classed as in vivo, C57BL/6 mice. The note with it: for colon length (Mean ± SD): 0.9% DSS 5 days, end of experiment; for body weights during the whole experiment compared with model control group: 0.9% DSS. As to the method:
66 female C57BL/6 mice were randomly divided into 6 groups: normal control group, model control group, cyclosporine A (25 mg/Kg), 5-ASA (100 mg/Kg), the compound in Example 27 (30 mg/Kg) and the compound in Example 26 (30 mg/Kg). There were 11 mice in each group (see Table 4 below). Besides the normal control group, the remaining groups were induced with 0.9% DSS for 5 days. The day of induction was the first day of the test and then normal drinking water was administered for 4 days. The normal control group was administered with normal drinking water all the time. The model control group, 5-ASA group, the compound in Example 27 group and the compound in Example 26 group were administered with 1% CMC-Na or the corresponding drug every day from the first day of the experiment to the end of the experiment. The cyclosporine A group was administered with cyclosporine A every day from the first day of experiment to the fifth day of the experiment and was administered with the corresponding volume of 1% CMC-Na every day from the sixth day to the end of the experiment due to toxicity. The normal control group was administered with the corresponding volume of 1% CMC-Na every day. The animals were treated and the indexes were tested at the end of the experiment.
The compound in Example 27, the compound in Example 26, 5-ASA or Cyclosporine A: Preparation Method: Suspended with 1% CMC-Na, and prepared when it was needed.
One-Way Anova test was performed with SPSS 17.0. The colony length was analyzed statistically between groups.

For a further series, the system named is ICR mice. As to the kind of experiment: Acute toxicity experiment of single oral administration in mice. The series is classed as in vivo. The note with it: 1000 mg/Kg single oral dose. In short, it runs like this:
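Fasted ICR mice (19–21 g, 3 male and 3 female per group) received a single oral dose of 1000 mg/Kg, given first to one of each sex, then to the remaining four. Acute signs were scored over the first 15 min, then state, deaths and daily body weight over 7 days.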

Series [2] relates to DSS-Induced inflammatory Bowel Disease Models in Mice. As to the kind of experiment: DSS-induced inflammatory bowel disease model in mice (Biological Example 5, 1.3% DSS). The series is classed as in vivo, C57BL/6 mice. The note with it: 30 mg/Kg i.g. Q.D, 1.3% DSS days 0-5; for inhibition in vivo at 30 mg/kg: Mus musculus, po, read-out: Inhibitory Rate of Colonic Reduction. As to the method: 40 healthy female C57BL/6 mice having weight of 16-19 g were randomly divided into 4 groups in accordance with weight. There were 10 mice in each group (see Table 6 below). The first day of the experiment was recorded as Day 0. The administration regimen and induction regimen were detailed in Table 6. The change in weight of experimental animals was recorded every day. […] Samples of animal colonic tissues were obtained to measure the length. One-way ANOVA analysis of mice weights was performed by SPSS22. Statistical analyses between groups were performed. Mann-Whitney U non-parametric test was performed on the length of colon.
The experimental method used in the present biological example is identical to those in Biological Example 3.
One-way ANOVA analysis of mice body weights and colonic weights per length was performed by SPSS22. Statistical analyses between groups were performed.
Calculation Formula of Inhibitory Rate of Colonic Reduction: (Length of Colon in Administration Group−Length of Colon in Model Group)/(Length of Colon in Blank Group−Length of Colon in Model Group)

For series [3], the system named is DSS-Induced Inflammatory Bowel Disease Models in Mice. As to the kind of experiment: DSS-induced inflammatory bowel disease model in mice (Biological Example 1, 1.6% DSS). The series is classed as in vivo, C57BL/6J mice. The note with it: for colon length (Mean ± SD): 1.6% DSS 8 days, end of experiment. As to the method:
Experimental animals: C57BL/6J mice, weight of 16-18 g
Piperidine-2,6-dione derivatives, 5-ASA or Cyclosporine A: Preparation Method: Suspended with 1% CMC-Na, and prepared when it was needed.
54 C57BL/6 mice were randomly divided into 6 groups: normal control group, model control group, Example 27 groups consisting of dose of 5 mg/Kg group, dose of 10 mg/Kg group and dose of 20 mg/Kg group, and cyclosporine A-25 mg/Kg group. There were 9 mice in each group (see Table 2 below). Besides the normal control group, the remaining groups were induced with 1.6% DSS for 8 days. Normal drinking water was then administered for 3 days. The normal control group was administered with normal drinking water all the time. The model control group and the compound in Example 27 group were administered with 1% CMC-Na or the corresponding drug every day until the end of the experiment. The cyclosporine A group was administered with the corresponding drug every day from the first day of experiment to the eighth day of the experiment and was administered with the corresponding volume of 1% CMC-Na every day from the ninth day to the end of the experiment due to toxicity. At the end of the experiment, the animals were treated and the indexes such as the colon length were tested.
The homogeneity of data variance test was performed by Spss13.0. Where the variance of data was homogeneous (P>0.05), one-way ANOVA LSD test was performed. Where the variance was inhomogeneous (P≤0.05), the data were treated with extraction of a root and homogeneity of data variance test was further performed. Where the variance of data was homogeneous (P>0.05), one-way ANOVA LSD test was performed. Where the variance was still inhomogeneous (P≤0.05), then Dunnett's multiple comparison (parameter method) was performed.

`Nc1ccc(O)c(C(=O)O)c1` [Example 5-ASA, 5-aminosalicylic acid, reference compound]: the “colon length (Mean ± SD)” value in series [1] (100 mg/Kg i.g. Q.D) was determined as 6.1 ± 0.4 cm.
On to `COCCCN1C(=O)CCC(N2C(=O)c3cccc(N)c3C2=O)C1=O` (centres unmarked) [Example 26, 4-amino-2-(1-(3-methoxypropyl)-2,6-dioxopiperidin-3-yl)isoindolin-1,3-dione], for which the “Daily Body Weight of Tested Female Mice (Mean ± SD)” value stood at 18.0 ± 0.7 g with ICR mice (Day 1); 21.9 ± 0.3 g in the series on ICR mice (Day 2); 22.1 ± 0.5 g in the series with ICR mice (Day 3); 22.4 ± 0.2 g with ICR mice (Day 4); 22.7 ± 0.3 g in the series on ICR mice (Day 5); 22.6 ± 0.3 g with ICR mice (Day 6). Also, the “Daily Body Weight of Tested Female Mice (Mean ± SD)” value with ICR mice (Day 7) is listed as 22.4 ± 0.2 g. For the same molecule, the “Daily Body Weight of Tested Male Mice (Mean ± SD)” value in the series on ICR mice (Day 1) stood at 18.7 ± 0.8 g; with ICR mice (Day 2) it was 23.4 ± 0.5 g; in the series with ICR mice (Day 3) it was 25.0 ± 0.6 g; in the series on ICR mice (Day 4), 26.6 ± 1.4 g; in the series with ICR mice (Day 5), 27.3 ± 1.3 g; in the series on ICR mice (Day 6), 28.3 ± 1.3 g. Besides, the “Daily Body Weight of Tested Male Mice (Mean ± SD)” value in the series with ICR mice (Day 7) was determined as 28.8 ± 1.4 g. Also, the “Summary of toxic response of tested animals in 7 Days” value (“Summary” below) in the series on ICR mice (Female) and in the series with ICR mice (Male) was “Abnormality was not observed in 7 days of the test” in each case. Also, the “body weights during the whole experiment compared with model control group” value in series [1] (30 mg/Kg i.g. Q.D) is recorded as “higher than that of the model control group”. Also, in series [1] (30 mg/Kg i.g. Q.D), the “colon length (Mean ± SD)” value turned out to be 6.3 ± 0.5 cm.
In the case of `COCCN1C(=O)CCC(N2C(=O)c3cccc(N)c3C2=O)C1=O` (centres unmarked) [Example 27, 4-amino-2-(1-(2-methoxyethyl)-2,6-dioxopiperidin-3-yl)isoindolin-1,3-dione], in series [2], the “Length (cm, Mean ± SD) of colon” value was determined as 6.7 ± 0.4 cm. Further, the inhibition in vivo at 30 mg/kg in series [2] turned out to be 81.8%. For the same molecule, the “body weights during the whole experiment compared with model control group” value in series [1] (30 mg/Kg i.g. Q.D) is “higher than that of the model control group”. Besides, the “colon length (Mean ± SD)” value in series [1] (30 mg/Kg i.g. Q.D) turned out to be 6.3 ± 0.5 cm; in series [3] (5 mg/Kg i.g. Q.D), 6.1 ± 0.4 cm; in series [3] (10 mg/Kg i.g. Q.D), 6.2 ± 0.4 cm; in series [3] (20 mg/Kg i.g. Q.D), 6.4±0.4 cm. Also, the “Disease Activity Index (DAI)” value in series [3] (5 mg/Kg i.g. Q.D, 1.6% DSS) was “better than the DAI of model control group”; in series [3] (10 mg/Kg i.g. Q.D, 1.6% DSS), “better than the DAI of model control group”; in series [3] (20 mg/Kg i.g. Q.D, 1.6% DSS) it was “equivalent to the DAI of the normal control group and cyclosporine A group; also recorded: better than the DAI of model control group”. The “relief of reduction in colon length in the model” value in series [3] (5 mg/Kg i.g. Q.D, 1.6% DSS) is recorded as “certain relief effects”; in series [3] (20 mg/Kg i.g. Q.D, 1.6% DSS) it was “significant relief effects”. Moreover, in series [3] (20 mg/Kg i.g. Q.D, 1.6% DSS), the “body weight of the animals during the experiment” value is “continuous increase trend”.
As to `COCCCN1C(=O)CCC(N2C(=O)c3cccc(F)c3C2=O)C1=O` (centres unmarked) [Example 17, 4-fluoro-2-(1-(3-methoxypropyl)-2,6-dioxopiperidin-3-yl)isoindolin-1,3-dione], in series [2], the “Length (cm, Mean ± SD) of colon” value came out at 7.0 ± 0.4 cm. Moreover, the inhibition in vivo at 30 mg/kg in series [2] stood at 109%. For the same molecule, the “Daily Body Weight of Tested Female Mice (Mean ± SD)” value is given as 18.6 ± 1.0 g in the series on ICR mice (Day 1); 21.9 ± 0.4 g in the series with ICR mice (Day 2); 22.7 ± 0.4 g in the series with ICR mice (Day 3); 22.7 ± 0.4 g with ICR mice (Day 4); 23.0 ± 0.4 g in the series on ICR mice (Day 5); 23.1 ± 1.0 g in the series on ICR mice (Day 6). In the series with ICR mice (Day 7), the “Daily Body Weight of Tested Female Mice (Mean ± SD)” value stood at 22.7 ± 1.2 g. Moreover, the “Daily Body Weight of Tested Male Mice (Mean ± SD)” value in the series on ICR mice (Day 1) is recorded as 19.0 ± 0.7 g; with ICR mice (Day 2), 24.0 ± 0.7 g; with ICR mice (Day 3), 24.6 ± 0.8 g; in the series on ICR mice (Day 4), 24.6 ± 0.8 g; in the series on ICR mice (Day 5), 26.1 ± 0.7 g; with ICR mice (Day 6) it was 28.1 ± 0.6 g. Further, the “Daily Body Weight of Tested Male Mice (Mean ± SD)” value in the series on ICR mice (Day 7) is listed as 29.3 ± 1.0 g. For the same molecule, the “Summary” value with ICR mice (Female) is on record as “Motor dysfunction in one animal was observed 10 minutes after”; with ICR mice (Male), “Motor dysfunction in two animals was observed 30 minutes after”.
For `COCCN1C(=O)CCC(N2C(=O)c3cccc(O)c3C2=O)C1=O` (centres unmarked) [Example 23, 4-hydroxy-2-(1-(2-methoxyethyl)-2,6-dioxopiperidin-3-yl)isoindolin-1,3-dione], the “Length (cm, Mean ± SD) of colon” value in series [2] is recorded as 6.9 ± 0.5 cm. Further, in series [2], the inhibition in vivo at 30 mg/kg was found to be 100%. The “Daily Body Weight of Tested Female Mice (Mean ± SD)” value in the series on ICR mice (Day 1) was 19.1 ± 0.6 g; in the series with ICR mice (Day 2) it was 22.4 ± 0.4 g; in the series on ICR mice (Day 3), 23.0 ± 0.1 g; with ICR mice (Day 4), 23.0 ± 0.1 g; with ICR mice (Day 5), 24.6 ± 0.4 g; in the series with ICR mice (Day 6) it was 24.8 ± 0.7 g. For the same molecule, the “Daily Body Weight of Tested Female Mice (Mean ± SD)” value in the series on ICR mice (Day 7) came out at 24.6 ± 0.4 g. Besides, the “Daily Body Weight of Tested Male Mice (Mean ± SD)” value with ICR mice (Day 1) amounted to 19.4 ± 0.8 g; in the series on ICR mice (Day 2), 24.6 ± 1.2 g; with ICR mice (Day 3), 24.5 ± 0.6 g; in the series with ICR mice (Day 4), 24.5 ± 0.6 g; with ICR mice (Day 5), 25.4 ± 1.2 g; in the series on ICR mice (Day 6), 28.1 ± 0.8 g. Also, the “Daily Body Weight of Tested Male Mice (Mean ± SD)” value in the series on ICR mice (Day 7) is recorded as 29.0 ± 0.8 g. The “Summary” value in the series with ICR mice (Female) and in the series with ICR mice (Male) was “Abnormality was not observed in 7 days of the test” throughout.
